Measurements as given in PubChem BioAssay AID179 (DTP/NCI, 2004).
pEC50, pIC50: −log10 of the molar value. Calls of active or inactive are those of the source.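 Rule for the calls: active = compounds giving half or more protection of infected cells from virus-caused growth loss, again on retest; inactive = the rest.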

Test system: CEM cells HIV-1 protection, formazan growth assay
Assay: NCI AIDS Antiviral Assay
Settings: for pIC50: measured here: growth of uninfected CEM cells
Summary of the method: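 CEM (human) cells, HIV-1 infected vs uninfected, 5-point dosing, formazan growth read-out. Retest threshold 50% protection.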

SMILES | pEC50 | pIC50 | outcome
COc1ccc(C2C(C#N)=C(N)C(C#N)=C3Oc4ccccc4N32)cc1 (centres undefined) | < 3.70 | < 3.70 | –
N#CN1CCC=C(c2cc3ccccc3[nH]2)C1 | < 3.94 | 4.22 | –
C[CH2][Sn]1([CH2]C)[O]C2C(O)OC(CO)C(O)C2[O]1 (centres undefined) | < 3.70 | 5.50 | –
CCOC(=O)C1=NN(c2ccc(C)cc2)C2(c3ccccc3)C=C(c3ccccc3)N(C)CCN12 (centres undefined) | < 3.70 | 3.84 | –
COC(=O)c1[nH]cnc1O | < 3.70 | < 3.70 | –
CC(C)CCC[C@@H](C)C1CCC2[C@@H]3CCC4C[C@@H](CCCC=C(c5cc(Cl)c(O)c(C(=O)O)c5)c5cc(Cl)c(O)c(C(=O)O)c5)CC[C@]4(C)C3CC[C@@]21C (some centres undefined) | 4.20 | 3.78 | –
O=c1[nH]nc(Cc2ccccc2)n1/N=C\CC/C=N\n1c(Cc2ccccc2)n[nH]c1=O | < 3.70 | 4.43 | –
C/C(=N\NC(=S)N(C)CCN(C)C(=S)N/N=C(\C)c1ccccn1)c1ccccn1 | < 3.70 | 5.61 | –
Cc1ccc(C2=C(c3ccccc3)C(O)(c3ccccc3)C(c3ccccc3)=C2c2ccc(C)cc2)cc1 | < 5.11 | < 5.11 | –
O=C1C=C2C[C@H]3C(O)C[C@]2(O1)[C@H]1CCCN31 (some centres undefined) | < 3.95 | < 3.95 | –
C=CC(=O)N1C/C(=C\c2ccc([N+](=O)[O-])cc2)C(=O)/C(=C/c2ccc([N+](=O)[O-])cc2)C1 | < 3.70 | 7.20 | –
COC(=O)Cc1cccc2c(=O)c(S(=O)(=O)NC(=O)Nc3ccc(Cl)cc3)c(-c3ccccc3)oc12 | < 3.70 | 4.38 | –
Brc1ccccc1C=NC12CC3CC(CC(C3)C1)C2 | < 4.64 | < 4.64 | –
COC(=O)C1C(=O)CC2C(C(=O)OC)C(=O)CC12 (centres undefined) | < 3.63 | 3.98 | –
C[C@]12CCC3(CC1C(=O)CC[C@@H]2OCc1ccccc1)OCCO3 (some centres undefined) | – | – | active
Cn1c(O)c(/C=N/c2ncccn2)c(=O)[nH]c1=O | < 3.70 | < 3.70 | –
COc1ccccc1NC(=O)C1=C(C)NC(C)=C(C(=O)Nc2ccccc2OC)C1c1ccc([N+](=O)[O-])cc1 | < 5.01 | < 5.01 | –
CN1c2ccccc2N(C(=O)c2ccc([N+](=O)[O-])cc2)C(CC(=O)O)c2cccn21 (centres undefined) | < 3.21 | 3.62 | –
CCOP(=O)(O)C1C(CO)OC(n2ccc(=O)[nH]c2=O)C1O (centres undefined) | < 3.70 | < 3.70 | –
O=C(O)CCc1ccc(NC(=O)CN(CCO)CCO)cc1 | < 3.70 | < 3.70 | –
Cc1c2ccncc2cc2c1sc1ccncc12 | < 4.40 | 6.23 | –
COP1(=S)OCC2OC(n3cc(C)c(=O)[nH]c3=O)CC2O1 (centres undefined) | < 4.00 | < 4.00 | –

SMILES | pEC50 | pIC50 | outcome
O=C1c2ccccc2C(=O)N1C/C=N/NS(=O)(=O)c1ccc(Cl)cc1 | < 4.02 | < 4.02 | –
CC(=O)Oc1c(C(C)C)cc2c(c1OC(C)=O)C[C@@]1(C)OC(=O)CC(C)(C)C1(OC(C)=O)C=C2 (some centres undefined) | – | – | inactive
CN1CSC(=S)N(C)C1 | < 3.70 | 4.88 | –
CC(C)N1CN(C(C(=O)N[C@@H]2C(=O)N3C2SC(C)(C)C3C(=O)O)c2ccc(O)cc2)CSC1=S (some centres undefined) | < 3.32 | 4.10 | –
NCCc1cc2c3c(c1)CCCN3CCC2 | < 3.70 | 4.95 | –
CC(C)c1c2[nH]c3ccccc3c2c(C(C)C)c2[nH]c3ccccc3c12 | < 4.70 | < 4.70 | –
CN1C(=O)CCC1(O)C1C=CC=CC1 (centres undefined) | < 2.89 | < 2.89 | –
NC(=O)c1cc2ccccc2[n+](Cc2ccc(F)cc2)c1 | 3.70 | 3.47 | –
Cc1ccc(C(=O)c2cccc(C)c2C(=O)O)c(C)c1 | < 3.70 | < 3.70 | –
c1ccc2c(c1)c(N1CCCCC1)cc1nc3c(cc(N4CCCCC4)c4ccccc43)nc12 | < 4.00 | < 4.00 | –
Cc1ccc(/C=C2/N=C([Se])N(C)C2=O)cc1 | < 4.73 | < 4.73 | –
O=C1CN(c2ccccc2)C(=O)C1C(=O)Nc1ccc(Cl)c(Cl)c1 (centres undefined) | < 5.40 | 5.41 | –
Cc1cccc(C)c1NC(=O)C1=NC(=S)NC(c2ccccc2)C1c1nc2ccccc2s1 (centres undefined) | – | – | inactive
CCOC(=O)/C=C/c1ccc2c(c1)OC(CO)[C@H](c1ccc(O)c(OC)c1)O2 (some centres undefined) | < 3.47 | 4.11 | –
COc1cc2c(c3oc(=O)cc(C)c13)[C@@H](OC(=O)C13CCC(C)(C(=O)O1)C3(C)C)[C@@H](OC(=O)C13CCC(C)(C(=O)O1)C3(C)C)C(C)(C)O2 (some centres undefined) | 6.49 | < 3.70 | –
Cn1c(=O)c2c(nc3n2CCC(=O)N3)n(C)c1=O | < 3.60 | < 3.60 | –
C[C@H](CCC(=O)O)[C@H]1CC[C@H]2[C@@H]3[C@H](O)C[C@@H]4C[C@H](O)CC[C@]4(C)[C@H]3CC[C@]12C | < 3.70 | 4.40 | –
COc1ccc(NS(=O)c2c(C)cc(C)cc2C)cc1 (centres undefined) | < 3.70 | 4.92 | –
COc1c2occc2cc2ccc(=O)oc12 | < 4.08 | < 4.08 | –
CN(C)c1ccc(N=Nc2cccc3ncccc23)cc1 | < 3.70 | 4.14 | –
COc1c(OCC(O)CN2CCCCC2)c2c(C)coc2c2ccoc12 (centres undefined) | < 3.20 | 4.45 | –
COc1ccc2c(ccc3[nH]c4c(C)cnc(NCCCN)c4c32)c1 | < 5.70 | 6.66 | –

SMILES | pEC50 | pIC50 | outcome
COc1ccc2oc(=O)c3c(c2c1C)OC(C)(C)C=C3 | < 3.70 | < 4.00 | –
CCOC(=O)c1ccc(C(=O)/C(C(C)=O)=C2\CCCN2C)n1C | 4.05 | 3.76 | –
c1ccc2c(c1)ccn2CCc1c[nH]c2ccccc12 | < 3.70 | < 3.70 | –
O=c1c2ccccc2[se]n1-c1ccccn1 | 5.11 | 4.79 | –
CCc1n[nH]c(=O)n1-n1c(C)ccc1C | < 3.70 | < 3.70 | –
CNC(=O)Oc1ccc(C(=O)OCCO)cc1 | < 3.70 | 4.02 | –
Cc1cc(NS(=O)(=O)c2ccc(NC(=O)c3ccc(Cl)c4c(Nc5ccc(S(=O)(=O)N=C(N)N)cc5)c5ccccc5nc34)cc2)no1 | < 4.29 | < 4.29 | –
O=C1/C(=C/c2ccccc2)CN(C(=O)Oc2ccc([N+](=O)[O-])cc2)C/C1=C\c1ccccc1 | – | – | inactive
Clc1ccc(C2=CCN3CC=C(c4ccc(Cl)cc4)C23)cc1 | < 3.70 | 4.97 | –
O=C1N=NC(=O)N1c1ccccc1 | < 3.70 | < 3.70 | –
O=C(Cc1ccccc1)NNc1nc(NNC(=O)c2ccncc2)nc(Nc2cccc(Cl)c2)n1 | < 3.70 | < 3.70 | –
CC(=Nc1ccc(Cl)cc1)c1ccncc1 | – | – | inactive
CCOC(=O)Nn1c(C)nnc1CC#N | < 3.70 | < 3.70 | –
CCOC1(OCC)CS(=O)(=O)C1c1ccc([N+](=O)[O-])cc1 (centres undefined) | < 3.70 | < 3.70 | –
CCCCCCCCCCCCCCCCCCNC(=S)/N=C\C(C(=O)Nc1ccccc1C)=C(/C)O | < 3.70 | 3.94 | –
COc1ccc(/C=C2\CCS(=O)(=O)c3ccccc3C2=O)cc1OC | < 4.00 | 4.95 | –
CNNC1=NS(=O)(=O)c2cc(C)c(Cl)cc2S1 | < 3.70 | < 3.70 | –
CN(C)CCNC(=O)Cn1ccc(=O)c2c([N+](=O)[O-])cccc21 | < 3.70 | < 3.70 | –
O=c1oc2ccccc2c(O)c1Sc1c(O)c2ccccc2oc1=O | – | – | inactive
CCO/C=N/c1[nH]c(C)c(Cc2ccccc2)c1C#N | < 4.30 | < 4.30 | –
c1cc2cc(c1)CN1CCNCCN(CCNCC1)Cc1cccc(c1)CN1CCNCCN(CCNCC1)C2 | < 4.30 | < 4.30 | –
CCCC(S(=O)(=O)c1ccccc1)S(=O)(=O)c1ccccc1 | – | – | inactive

SMILES | pEC50 | pIC50 | outcome
COc1ccc(N2C(=O)c3c(c4[nH]c5ccccc5c4c4ccc(C(C)(C)C)cc34)C2=O)cc1 | < 4.94 | < 4.94 | –
O=C(c1ccccc1)N1OCCCc2ccccc21 | < 3.70 | 3.71 | –
NCP1(=O)CNC(=O)NC1 | < 2.82 | < 2.82 | –
CN1CCCC2(CCCc3ccccc32)C1 (centres undefined) | < 3.00 | 3.59 | –
CCc1nc(N)c2nc(-c3cccs3)oc2n1 | < 3.70 | 3.74 | –
Clc1cccc(-c2ccc[nH]2)c1 | < 3.70 | < 3.70 | –
C=CCN1C(=O)CS/C1=N\NC(=O)c1c(C)nc2sccn12 | < 3.13 | 3.62 | –
CCOc1ccc(-n2nnc3c(N)nc(N)nc32)cc1 | < 3.70 | < 3.70 | –
COC(OC(CO)C(O)S(=O)(=O)O)C(O)S(=O)(=O)O (centres undefined) | < 3.70 | 4.49 | –
O=C1CSC(c2ccccc2O)N1c1ccc(-c2ccc(-n3c(-c4ccccc4)nc4ccccc4c3=O)cc2)cc1 (centres undefined) | < 3.70 | 4.92 | –
CC1CCCN1c1ccnc2cc(Cl)ccc12 (centres undefined) | < 3.00 | 3.54 | –
C[N+]1(C)N=C(c2ccccc2)C=C1[O-] | < 3.70 | < 3.70 | –
CCCCNC(=O)/C(=C/c1ccc2c(c1)OCO2)NC(=O)c1ccccc1 | < 3.70 | < 3.70 | –
CCOC(=O)[C@@H]1ON2O[C@H](OC3CCCCC3c3ccccc3)C[C@H]3OC(=O)[C@@H]1C32 (some centres undefined) | < 3.70 | 3.93 | –
COc1ccc(NC(=O)CC/C(CC(=O)c2ccco2)=N/NC(=O)C(N)=O)cc1 | < 4.60 | < 4.60 | –
Cc1ccc(S(=O)(=O)CC2(Br)Cc3ccccc3C2=O)cc1 (centres undefined) | < 3.70 | 5.24 | –
COc1ccc(S(=O)(=O)Cc2ccc(C(=O)O)cc2)cc1 | < 3.09 | < 3.09 | –
O=C1N=C(c2ccccc2)O/C1=C\c1ccccc1 | < 3.70 | < 3.70 | –
CC(C)CCC[C@@H](C)[C@H]1CC[C@H]2[C@@H]3CC[C@H]4C[C@@H](CCC=C(c5cc(Cl)c(O)c(C(=O)O)c5)c5cc(Cl)c(O)c(C(=O)O)c5)CC[C@]4(C)[C@H]3CC[C@]12C | 4.43 | 3.53 | –
CCCCCCCC(=O)c1ccc(O)c(-c2nc3ccc(C(F)(F)F)cc3[nH]2)c1 | < 4.61 | 5.68 | –
Cc1ccc(N(C)S(=O)(=O)c2ccc([N+](=O)[O-])cc2)cc1 | < 3.70 | 3.75 | –
O=C(O)Cc1ccccc1CCc1ccccc1Cl | < 3.32 | 3.60 | –
